One series has as its system HCoV-229E. The series can be described thus: microbe, parasite or virus in culture. Conditions: Human coronavirus 229E, HEL 299, read-out: HCoV-229E EC50. It is filed as cell-based.
A short description of series [1]: in vitro. Conditions: chlorocebus sabaeus.
A further series concerns VeroE6 cells. The settings on record: uninfected VeroE6 cells, MTS assay; mean ± SD of duplicate experiments.
Series [2] can be described thus: in vitro. The settings on record: human.
Series [3] concerns the target SARS-CoV-2 nsp13 helicase (Severe acute respiratory syndrome coronavirus 2, UniProt P0DTD1). The series can be described thus: biochemical. It counts as biochemical. The settings on record: for IC50: SARS-CoV-2 nsp13 helicase-associated activity, read-out: helicase unwinding IC50.
A further series addresses SARS-CoV-2 nsp13 ATPase (Severe acute respiratory syndrome coronavirus 2, UniProt P0DTD1). It is filed as biochemical. Conditions: for IC50: SARS-CoV-2 nsp13 ATPase-associated activity, read-out: helicase ATPase IC50; for helicase ATPase percentage of control: in the presence of the highest concentration of tested compound (30 μM; 3 μM for SSYA10-001).
In another series the test system is SARS-CoV-2. The experiment in a line: microbe, parasite or virus in culture. It is filed as cell-based. The settings on record: […], mean ± SD of duplicate experiments; for EC50: Severe acute respiratory syndrome coronavirus 2, read-out: Anti-SARS-CoV-2 activity EC50.
In another series the target is SARS-CoV-2 nsp12 RdRp (Severe acute respiratory syndrome coronavirus 2, UniProt P0DTD1). The experiment in a line: SARS-CoV-2 nsp12 RdRp activity, fluorescent-based assay. It counts as biochemical. Conditions: in the presence of the highest concentration of tested compound (30 μM); read-out: RdRp percentage of control.
In the next series the test system is HCoV-OC43. The experiment in a line: microbe, parasite or virus in culture. It counts as cell-based. Conditions: Betacoronavirus 1, OC43, HEL 299, read-out: HCoV-OC43 EC50.
The test system of series [4] is autophagy (LC3-II puncta) in VeroE6 cells. The experiment in a line: Autophagy inhibition assay, LC3-II immunofluorescence in VeroE6 cells. It counts as cell-based. Conditions: for effect on autophagy (LC3-II accumulation), in words: 10 μM, 4 h, compared to CQ.

Bounds are passed on as bounds.

As a reminder, the EC50 is the midpoint of the concentration-response curve. One may read the IC50 as the concentration that gives 50% inhibition. In general, melting point refers to the temperature of the solid-liquid transition.

`CCCOc1ccc(-c2cc(OCCN3CCN(Cc4ccccc4)CC3)c3c(OC)cc(OC)cc3n2)cc1` [Compound 6f]: the EC50 is 2.2 ± 0.7 µM in the series on HCoV-229E, 7.9 ± 5.6 µM with SARS-CoV-2 and 1.9 ± 0.2 µM in the series on HCoV-OC43. For the same compound, the CC50 is greater than 100 µM in the series “in vitro [1]” and 35.6 ± 0.2 µM in the series “in vitro [2]”. In the series on VeroE6 cells, the “VeroE6 cells CC50” value is listed as “lacked cytotoxicity”. For the same compound, the IC50 (in series [3]; on SARS-CoV-2 nsp13 ATPase) was greater than 30 µM throughout. Also, the remaining activity at 30 µM in series [3] (in the presence of the highest concentration of tested compound (30 μM), read-out: helicase unwinding percentage of control) was determined as 55%; on SARS-CoV-2 nsp12 RdRp, 100%. Moreover, the “helicase ATPase percentage of control” value on SARS-CoV-2 nsp13 ATPase worked out at 96%.
On to `CCN(CC)CCCC(C)Nc1ccnc2cc(Cl)ccc12` (stereo not drawn) [Chloroquine, chloroquine, reference compound], for which the CC50 in the series “in vitro [1]” stood at 83.4 ± 4.2 µM; in the series “in vitro [2]” it was 33.6 ± 1.3 µM. Besides, the “increase in the intensity of the cytoplasmic LC3 puncta” value in series [4] (10 μM for 4 h) is listed as 9 fold. For the same compound, the EC50 in the series on HCoV-OC43 was less than 0.8 µM.
On to `CCCOc1ccc(-c2cc(OCCN3CCN(Cc4ccccc4)CC3)c3cccc(OC)c3n2)cc1` [Compound 5f], for which the melting point lay in the range of 95 to 97 °C. For the same compound, the CC50 in the series “in vitro [1]” was greater than 100 µM. In the series on VeroE6 cells, the “VeroE6 cells CC50” value is reported as “lacked cytotoxicity”. Moreover, in the series on SARS-CoV-2, the EC50 was found to be 35.9 ± 32.2 µM.
Consider `CCCOc1ccc(-c2cc(OCCN3CCCCC3)c3c(OC)ccc(OC)c3n2)cc1` [Compound 7k], for which the EC50 in the series with HCoV-229E came to 9.4 ± 3.6 µM; in the series with SARS-CoV-2 it was 2.7 ± 1.9 µM; in the series on HCoV-OC43 it was 7.7 ± 3.3 µM. The results for the CC50 in “in vitro [1]” and in the series “in vitro [2]” were 23.8 ± 5.7 µM and 95.3 ± 3.3 µM, respectively. Besides, the IC50 is 1.41 ± 0.64 µM in series [3] and greater than 30 µM on SARS-CoV-2 nsp13 ATPase. The “helicase ATPase percentage of control” value at SARS-CoV-2 nsp13 ATPase is listed as 100%. Also, the remaining activity at 30 µM at SARS-CoV-2 nsp12 RdRp amounted to 100%.
Take `CCCOc1ccc(-c2cc(OCCN3CCc4cc(OC)c(OC)cc4C3)c3cccc(OC)c3n2)cc1` [Compound 5g]: the CC50 in “in vitro [1]” was greater than 100 µM. For the same compound, the “effect on autophagy (LC3-II accumulation), in words” value in [4] is recorded as “minimal effect on the autophagy”. Besides, in the series on SARS-CoV-2, the EC50 is greater than 100 µM and the “Anti-SARS-CoV-2 activity EC50” value is given as “devoid of antiviral activity”.
In “in vitro [1]”, `CCCOc1ccc(-c2cc(OCCN3CCc4cc(OC)c(OC)cc4C3)c3cc(OC)cc(OC)c3n2)cc1` [Compound 9g] had a CC50 greater than 100 µM. Also, in series [4], the “effect on autophagy (LC3-II accumulation), in words” value is recorded as “minimal effect on the autophagy”. For the same compound, in the series with SARS-CoV-2, the EC50 is greater than 100 µM and the “Anti-SARS-CoV-2 activity EC50” value is “devoid of antiviral activity”.

The values are drawn from article PMC9088073, “Discovery of 2-Phenylquinolines with Broad-Spectrum Anti-coronavirus Activity” (ACS Medicinal Chemistry Letters, 2022).
